Activity calls are given as the source filed them.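 Rule for the calls: active = compounds giving half or more protection of infected cells from virus-caused growth loss, again on retest; inactive = the rest.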
System: CEM cells HIV-1 protection, formazan growth assay
Experiment: NCI AIDS Antiviral Assay
Conditions: for IC50: measured here: growth of uninfected CEM cells
In short: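 Soluble formazan readout of cell growth; CEM cells ± HIV-1; 5 drug concs. ≥50% protection → retest; ≥50% again = moderately active; reproducible 100% = confirmed active.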

COC(=O)CCCC=C(c1cc(F)c(OC)c(C(=O)OC)c1)c1cc(F)c(OC)c(C(=O)OC)c1
EC50: 1.7 µM
IC50: 64.6 µM

CC[n+]1c(/C=C/c2ccc(N(CCCl)CCCl)cc2)ccc2cc(I)ccc21
outcome: inactive

COc1cc2c(c(OC)c1OC)-c1ccc(SC)c(=S)cc1[C@@H](NC(C)=O)CC2
outcome: inactive

CC1(C)CC(=O)c2c(nc(SSc3nc4c(c(-c5ccccc5)c3C#N)C(=O)CC(C)(C)C4)c(C#N)c2-c2ccccc2)C1
EC50: > 200 µM
IC50: 89.1 µM

O=c1ccc2ccc(O)c(O)c2o1
EC50: > 1410 µM
IC50: 66.1 µM

Cc1cc2nc3nc(N)nc(NS(=O)(=O)c4cc(C)c(Cl)cc4S)n3c2cc1C
EC50: 102 µM
IC50: 380 µM

CSc1c(S(C)=O)c2ccccc2n1C (stereo not given)
EC50: > 200 µM
IC50: > 200 µM

Cc1ccc([P+](Cc2ccccc2)(c2ccccc2)c2ccccc2)cc1
EC50: > 200 µM
IC50: 1.1 µM

NC(Cc1ccc(O)c(O)c1)P(=O)(O)O (stereo not given)
EC50: > 200 µM
IC50: 24.5 µM

O=C1CCC2(CCCCC2)N1
EC50: > 200 µM
IC50: > 200 µM

C1=Cc2ccccc2/C1=C/c1ccc2c(c1)OCO2
EC50: > 20.9 µM
IC50: 12.3 µM

COC(=O)NC1C(C)OC(OC2C/C=C(/C)C3C=CC4C(OC5CC(OC6CC(O)C(OC7CC(O)C(OC)C(C)O7)C(C)O6)C(O)C(C)O5)C(C)CC(C)C4C3(C)/C(O)=C3\C(=O)OC4(CC(C)C(CO)=CC4/C=C\2C)C3=O)CC1(C)[N+](=O)[O-] (stereo not given)
EC50: > 209 µM
IC50: 4.79 µM

CN(C)C=Nc1c2c(nc3ccccc13)CCCC2
EC50: > 200 µM
IC50: > 200 µM

CCc1ccccc1NC(=O)C(=O)C(C(=O)c1ccc(OC)cc1)c1ccc(OC)cc1 (stereo not given)
outcome: inactive

Cc1ccc(OS(=O)(=O)c2ccccc2[N+](=O)[O-])cc1
outcome: active

CCN(CC)CCn1ncc2ccc3c(c(=O)c4cccnc4n3CCN(CC)CC)c21
EC50: > 20 µM
IC50: 0.309 µM

Cc1ccc(NC2=CC(=O)C(NO)c3ccccc32)cc1 (stereo not given)
EC50: > 200 µM
IC50: 3.89 µM

O=[N+]([O-])c1cccc2nccc(NCCCO)c12
EC50: > 200 µM
IC50: 6.92 µM

O=C(Cn1c2ccc(Br)cc2c2nc3ccccc3nc21)NNC(=S)NC1CCCCC1
EC50: > 200 µM
IC50: 36.3 µM

O=C1Nc2ccccc2C1S(=O)(=O)c1ccccc1 (stereo not given)
EC50: > 138 µM
IC50: 110 µM

CN(C(=O)C12C3C4C1C1C2C3C41I)C(C)(C)C (stereo not given)
EC50: > 251 µM
IC50: > 251 µM

Clc1ccc(SSc2ccc(Cl)cc2Cl)c(Cl)c1
EC50: > 200 µM
IC50: 6.76 µM

O=c1[nH]c2ccccc2c(=O)n1/N=C/c1ccc(Cl)cc1
EC50: > 200 µM
IC50: > 200 µM

COc1ccc(-n2cnc3c(NC(C)(C)C(=O)O)ncnc32)cc1
EC50: > 200 µM
IC50: 126 µM

Nc1ncnc2c1ncn2C1COC(CO)C1CO (stereo not given)
EC50: 87.1 µM
IC50: > 200 µM

Cc1cc(C)nc(NS(=O)(=O)c2ccc(NC(=O)c3cccn4c(=O)c5ccccc5nc34)cc2)n1
outcome: inactive

Cc1cc2cc3c(=O)[nH]c(=O)cc-3n(CC(O)C(O)C(O)CO)c2cc1C (stereo not given)
EC50: > 200 µM
IC50: > 200 µM

O=S(=O)(O)C(O)CCC(O)S(=O)(=O)O (stereo not given)
EC50: > 200 µM
IC50: 40.7 µM

COc1ccc2c(c1)NC1(O)c3ccccc3C(=O)C21O (stereo not given)
EC50: > 331 µM
IC50: > 331 µM

CCOC(=O)C(CC[C@@H]1N[C@H](C(N)=O)Cc2c1[nH]c1ccccc21)C(=O)OCC
EC50: > 89.1 µM
IC50: > 89.1 µM

c1cc2nnnn2nc1N1CCCC1
EC50: > 200 µM
IC50: > 200 µM

NC1=NCC(CN2CCCC2)O1 (stereo not given)
EC50: > 200 µM
IC50: > 200 µM

N#C/C(=C\c1ccc(O)c(O)c1)C(=O)NCCCCNC(=O)/C(C#N)=C/c1ccc(O)c(O)c1
EC50: > 200 µM
IC50: 24 µM

COc1cc(C=C2N=C(c3ccccc3)N(n3c(-c4ccccc4)nc4ccccc4c3=O)C2=O)cc(OC)c1OC
EC50: > 200 µM
IC50: 30.9 µM

CC(C)Oc1c(N(Cc2ccccc2)c2ccccc2C2SCCCS2)c(=O)c1=O
EC50: > 200 µM
IC50: 1.17 µM

COc1cc2c(c(OC)c1OC)C(=O)[C@@H]1[C@H]2N1C(=O)NCCCl
EC50: > 200 µM
IC50: 45.7 µM

COc1ccc(C(=O)c2ccc(OC)c(S(=O)(=O)OC)c2)cc1S(=O)(=O)OC
EC50: > 43.7 µM
IC50: > 43.7 µM

NC(CSCCSCC(N)C(=O)O)C(=O)O (stereo not given)
EC50: > 10 µM
IC50: > 10 µM

Clc1c2ccccc2nc2c1[nH]c1ccccc12
EC50: > 200 µM
IC50: 11.2 µM

O=C(c1ccccc1)C1C(c2ccccc2)N1S(=O)(=O)c1ccccc1 (stereo not given)
EC50: > 20 µM
IC50: 3.02 µM

NC(N)=NCCCC(NCc1c2ccccc2[n+]([O-])c2ccccc12)C(=O)O (stereo not given)
outcome: inactive

[O-]c1c2cc(-[n+]3c(-c4ccccc4)cc(-c4ccccc4)cc3-c3ccccc3)cc1CO[C@@H](c1ccccc1)[C@H](c1ccccc1)OCCOCCO[C@@H](c1ccccc1)[C@H](c1ccccc1)OC2
EC50: > 2 µM
IC50: 0.105 µM

Oc1ccc2c(c1)CCc1c-2n(CCN2CCOCC2)c2ccc(O)cc12
EC50: > 200 µM
IC50: 14.8 µM

C=CCN1/C(=C2\SC(=S)N(c3ccc(C)cc3)C2=O)Sc2c1nc[nH]c2=O
EC50: > 2.51 µM
IC50: > 2.51 µM

CCOC(=O)c1nc2ccc(C(F)(F)F)cc2nc1Oc1ccc(C#N)cc1
EC50: > 200 µM
IC50: > 200 µM

Cn1ccc2c(c1=O)C(=O)OC2(C)C
EC50: > 200 µM
IC50: > 200 µM

O=C(N/N=C/c1cccc([N+](=O)[O-])c1)C(=O)N/N=C/c1cccc([N+](=O)[O-])c1
EC50: > 100 µM
IC50: > 100 µM

CC1C2CC(C(S(=O)(=O)N3CCOCC3)/C2=N\O)C1(C)C (stereo not given)
EC50: > 200 µM
IC50: 195 µM

Cc1cc2c(cc1C)[n+](=O)c(C(=O)C/C(=N/OCCCc1ccccc1)C(=O)Nc1cc(Cl)ccc1Cl)c(C)n2[O-]
EC50: > 6.31 µM
IC50: > 6.31 µM

CC1=NN(C(=O)Cc2ccccc2)C(=O)/C1=C\c1ccc(O)cc1
EC50: > 16.2 µM
IC50: > 16.2 µM

CC(C)C1CC[C@H](C)C[C@@H]1OC(=O)C(C(=O)O[C@H]1C[C@@H](C)CCC1C(C)C)C(O)[C@@H]1OC(C)(C)O[C@H]1C1COC(C)(C)O1 (stereo not given in full)
EC50: > 200 µM
IC50: 7.41 µM

COc1ccc2ncc(COC(=O)NC3CCCCC3)c(COC(=O)NC3CCCCC3)c2c1
EC50: > 174 µM
IC50: 40.7 µM

c1ccc(COc2cccc3cccnc23)cc1
EC50: > 251 µM
IC50: 110 µM

CCOCC(=O)N[C@H]1CCc2cc(OC)c(OC)c(OC)c2-c2ccc(SC)c(=O)cc21
EC50: > 0.2 µM
IC50: 0.00115 µM

CC1Cn2c(=S)[nH]c3cccc(c32)NC1=O (stereo not given)
EC50: > 200 µM
IC50: > 200 µM

OC1CC[C@H](Cl)C2=C1[C@@]13C[C@]14OCCC3OC2[C@@H]4Cl (stereo not given in full)
EC50: > 427 µM
IC50: > 427 µM

CCC1SC(C)C(=O)NC1=O (stereo not given)
EC50: > 661 µM
IC50: > 661 µM

COC(=O)C1=C(c2ccccc2)C(O)(c2ccccc2)C(C(=O)OC)C1=O (stereo not given)
EC50: > 339 µM
IC50: 209 µM

CCSSc1ccccc1C(=O)O
EC50: > 200 µM
IC50: 32.4 µM

COC1=NCc2ccccc2-c2ccccc21
EC50: > 224 µM
IC50: 123 µM

C=CCN(N=O)C(=O)ON1C(=O)CCC1=O
EC50: > 1100 µM
IC50: 275 µM

CCCC(=O)Nc1cc2c3c(c1)CCCN3CCC2
EC50: > 200 µM
IC50: 79.4 µM

O=C(O)c1ccccc1P12(OC(=O)c3ccccc31)OC(=O)c1ccccc12
EC50: > 209 µM
IC50: 170 µM

O=C1OC(Sc2ccccc2)(Sc2ccccc2)c2cccc3cccc1c23
outcome: inactive

Nc1nc2cc([N+](=O)[O-])cnc2s1
EC50: > 479 µM
IC50: 437 µM

c1ccc2c(c1)[nH]c1c3ccccc3sc21
EC50: > 200 µM
IC50: > 200 µM

CCOC(=O)Cc1csc(N/N=c2/sc(C=Nc3ccccc3)c(O)n2CC)n1
EC50: > 200 µM
IC50: > 200 µM

CC(C)(CN1CCCCC1)C(/C=C/c1ccc(Cl)c(Cl)c1)=N\NC(=O)N/N=C(/C=C/c1ccc(Cl)c(Cl)c1)C(C)(C)CN1CCCCC1
EC50: > 200 µM
IC50: 2.24 µM

CCOC(=O)C(=CNC(=S)Nc1ccc(Cl)c(Cl)c1)C(=O)OCC
EC50: > 200 µM
IC50: 34.7 µM

CCOC(=O)c1sc2nc(SC)nc3c2c1NCN3C1CC1
EC50: > 100 µM
IC50: > 100 µM

COc1ccc(Cc2c3cc(OC)c(OC)cc3cc[n+]2C)cc1
EC50: > 550 µM
IC50: 107 µM

CC(=O)c1cc2ccccc2oc1=O
EC50: > 138 µM
IC50: > 138 µM

CC1(C)CCC[C@]2(C)c3occc3CCC12 (stereo not given in full)
outcome: inactive

Cc1ccc(S(=O)(=O)c2c(O)c3ccc(O)c(C)c3oc2=O)cc1
EC50: > 200 µM
IC50: > 200 µM

O=C1CNC(=O)c2[nH]cnc2N1
outcome: inactive

OCCCN(CCO)CCN(CCCO)CCCO
EC50: > 200 µM
IC50: > 200 µM

CC(=O)c1sc2c(c1O)c(=O)n(-c1ccccc1)c(=S)n2-c1ccccc1
EC50: > 240 µM
IC50: 70.8 µM

O=c1c2[nH]c3cccc(Cl)c3c2cnn1-c1ccc(F)cc1
EC50: > 6.03 µM
IC50: > 6.03 µM

CC12OC3(C)c4ccccc4OP3(c3ccccc3)(Oc3ccccc31)O2 (stereo not given)
EC50: > 79.4 µM
IC50: > 79.4 µM

[Cl-].[Rh+3].c1ccc(-c2ccnc3c2ccc2c(-c4ccccc4)ccnc23)cc1.c1ccc(-c2ccnc3c2ccc2c(-c4ccccc4)ccnc23)cc1.c1ccc(-c2ccnc3c2ccc2c(-c4ccccc4)ccnc23)cc1
EC50: > 11 µM
IC50: 7.08 µM

O=C(N/C(=C/c1ccc(Cl)cc1)c1nc2ccccc2c(=O)n1Nc1ccc([N+](=O)[O-])cc1[N+](=O)[O-])c1ccccc1
EC50: > 200 µM
IC50: 178 µM

N#Cc1c(Cl)c2cccnc2n2c1nc1ccccc12
EC50: > 200 µM
IC50: 0.339 µM

COc1ccc2nc3cccc([N+](=O)[O-])c3c(NCCO)c2c1
EC50: > 2 µM
IC50: 0.0309 µM

CCC1(C)C(C#N)(C#N)C1(C#N)C#N
EC50: > 200 µM
IC50: 1.29 µM

COC(=O)Nc1cn2ccc(C(Cl)=C(Cl)Cl)cc2n1
EC50: > 30.9 µM
IC50: 0.0331 µM

COc1ccc(OC)c(/C=C/C(=O)C(C)(C)C)c1
EC50: > 105 µM
IC50: 19.1 µM

Cn1c(=O)sc2cc(C(=S)N3CCOCC3)ccc21
EC50: > 141 µM
IC50: 64.6 µM
